From patent US20260297080A1, “BICYCLIC COMPOUNDS AS CDK INHIBITORS” (BeOne Medicines I GmbH, priority 2022, published 2026)

Assays:
[1] = molecular target: CDK2/Cyclin E1 (Homo sapiens, UniProt P24941); test: CDK2/Cyclin E1 Biochemical Assay (TR-FRET), 0.060 mM ATP; conditions: 0.15 μM Rb (Ser780)-biotin substrate, pH7.0, 60 min preincubation, 120 min reaction, room temperature
In short: (§1)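 IC50 was from a four-parameter logistic fit of the 665/620 nm TR-FRET ratio (Eu anti-pRb Ser780 mAb, streptavidin-XL665). Compound (0-10 μM) was preincubated 60 min with enzyme, then reacted 120 min at room temperature with 0.15 μM biotinylated Rb (Ser780) peptide. ATP was 0.015 mM for CDK1/Cyclin B1 and 0.060 mM for CDK2/Cyclin E1; buffer was HEPES pH7.0.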

[2] = molecular target: CDK1/Cyclin B1 (Homo sapiens, UniProt P06493); test: CDK1/Cyclin B1 Biochemical Assay (TR-FRET), 0.015 mM ATP; conditions: 0.15 μM Rb (Ser780)-biotin substrate, pH7.0, 60 min preincubation, 120 min reaction, room temperature
Sequence of CDK1/Cyclin B1 (P06493 whole entry): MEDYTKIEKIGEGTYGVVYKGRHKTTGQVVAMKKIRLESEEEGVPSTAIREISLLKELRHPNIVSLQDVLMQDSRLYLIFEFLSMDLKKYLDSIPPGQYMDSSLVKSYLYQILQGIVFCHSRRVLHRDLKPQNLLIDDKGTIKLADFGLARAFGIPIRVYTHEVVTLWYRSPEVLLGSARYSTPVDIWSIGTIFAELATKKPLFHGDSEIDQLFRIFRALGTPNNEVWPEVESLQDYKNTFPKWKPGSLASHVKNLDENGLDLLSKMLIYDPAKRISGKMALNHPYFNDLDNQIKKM
Sequence of CDK1/Cyclin B1 (P14635 whole entry partner): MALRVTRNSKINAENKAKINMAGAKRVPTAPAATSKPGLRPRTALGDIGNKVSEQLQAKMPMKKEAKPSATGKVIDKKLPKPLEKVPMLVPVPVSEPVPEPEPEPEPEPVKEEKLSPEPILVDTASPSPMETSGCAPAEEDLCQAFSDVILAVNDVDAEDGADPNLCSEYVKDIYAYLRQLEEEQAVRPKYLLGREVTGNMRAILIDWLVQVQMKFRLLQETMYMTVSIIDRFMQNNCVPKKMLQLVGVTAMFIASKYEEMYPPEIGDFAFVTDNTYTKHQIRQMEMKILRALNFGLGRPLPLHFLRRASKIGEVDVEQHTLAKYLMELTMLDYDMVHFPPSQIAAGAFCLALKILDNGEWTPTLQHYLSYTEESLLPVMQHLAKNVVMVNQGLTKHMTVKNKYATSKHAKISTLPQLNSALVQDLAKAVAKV
In short: as §1

| Compound | IC50 [1] [µM] | IC50 [2] [µM] |
| --- | --- | --- |
| CCCNC(=O)O[C@H]1CC[C@@H](c2cc(Nc3ccc4c(c3F)C(C)NS4(=O)=O)n[nH]2)C1 (single isomer, unassigned) [Example 53d, cis-3-(3-((4-fluoro-3-methyl-1,1-dioxido-2,3-dihydrobenzo[d]isothiazol-5-yl)amino)-1H-pyrazol-5-yl)cyclopentyl propylcarbamate] | 0.0071 | 0.17 |
| CC(C)NC(=O)O[C@H]1CC[C@@H](c2cc(Nc3ccc4c(c3F)CN(CC(O)CO)S4(=O)=O)n[nH]2)C1 (relative stereo) [Example 71, cis-3-(3-((2-(2,3-dihydroxypropyl)-4-fluoro-1,1-dioxido-2,3-dihydrobenzo[d]isothiazol-5-yl)amino)-1H-pyrazol-5-yl)cyclopentyl isopropylcarbamate] | 0.0052 | 0.44 |
| CC(C)NC(=O)O[C@H]1CC[C@@H](c2cc(Nc3ccc4c(c3)S(=O)(=O)NC4(C)C)n[nH]2)C1 (relative stereo) [Example 4, cis-3-(5-((3,3-dimethyl-1,1-dioxido-2,3-dihydrobenzo[d]isothiazol-6-yl)amino)-1H-pyrazol-3-yl)cyclopentyl isopropylcarbamate] | 0.0086 | 0.184 |
| CC1(NC(=O)O[C@H]2CC[C@@H](c3cc(Nc4cc5c(cc4F)S(=O)(=O)NC5)n[nH]3)C2)CC1 (single isomer, unassigned) [Example 44b, cis-3-(3-((6-fluoro-1,1-dioxido-2,3-dihydrobenzo[d]isothiazol-5-yl)amino)-1H-pyrazol-5-yl)cyclopentyl(1-methylcyclopropyl)carbamate] | 0.0025 | 0.091 |
| CC(C)NC(=O)O[C@H]1CC[C@@H](c2cc(Nc3ccc4c(c3)N(CCO)S(=O)(=O)C4)n[nH]2)C1 (relative stereo) [Example 309, cis-3-(3-((1-(2-hydroxyethyl)-2,2-dioxido-1,3-dihydrobenzo[c]isothiazol-6-yl)amino)-1H-pyrazol-5-yl)cyclopentyl isopropylcarbamate] | 0.0014 | 0.0061 |
| CC(C)(O)CNC(=O)O[C@H]1CC[C@@H](c2cc(Nc3ccc4c(c3F)CNS4(=O)=O)n[nH]2)C1 (relative stereo) [Example 146, cis-3-(3-((4-fluoro-1,1-dioxido-2,3-dihydrobenzo[d]isothiazol-5-yl)amino)-1H-pyrazol-5-yl)cyclopentyl(2-hydroxy-2-methylpropyl)carbamate] | 0.0081 | 0.323 |
| [2H]C([2H])([2H])N1c2ccc(Nc3cc([C@@H]4CC[C@H](OC(=O)NC(C)C)C4)[nH]n3)c(F)c2CS1(=O)=O (single isomer, unassigned) [Example 267a, cis-3-(3-((4-fluoro-1-(methyl-d3)-2,2-dioxido-1,3-dihydrobenzo[c]isothiazol-5-yl)amino)-1H-pyrazol-5-yl)cyclopentyl isopropylcarbamate] | 0.0078 | 0.142 |
| CC(C)NC(=O)O[C@H]1CC[C@@H](c2cc(Nc3cc4c(cc3F)C(C)(C)NS4(=O)=O)n[nH]2)C1 (relative stereo) [Example 8, cis-3-(3-((5-fluoro-3,3-dimethyl-1,1-dioxido-2,3-dihydrobenzo[d]isothiazol-6-yl)amino)-1H-pyrazol-5-yl)cyclopentyl isopropylcarbamate] | 0.121 | 1.54 |
| CC(C)NC(=O)O[C@H]1CC[C@@H](c2cc(Nc3ccc4c(c3)NS(=O)(=O)C4)n[nH]2)C1 (stereo in doubt) [Example 303b, cis-3-(3-((2,2-dioxido-1,3-dihydrobenzo[c]isothiazol-6-yl)amino)-1H-pyrazol-5-yl)cyclopentyl isopropylcarbamate] | 0.002 | 0.028 |
| CC1NS(=O)(=O)c2ccc(Nc3cc([C@@H]4CC[C@H](OC(=O)NC5(C)CC5)C4)[nH]n3)cc21 (single isomer, unassigned) [Example 322a, cis-3-(3-((3-methyl-1,1-dioxido-2,3-dihydrobenzo[d]isothiazol-5-yl)amino)-1H-pyrazol-5-yl)cyclopentyl(1-methylcyclopropyl)carbamate] | 0.0011 | 0.017 |
| CC(C)NC(=O)O[C@H]1CC[C@@H](c2cc(Nc3ccc4c(c3)CS(=O)(=O)N4CCCO)n[nH]2)C1 (relative stereo) [Example 215, cis-3-(3-((1-(3-hydroxypropyl)-2,2-dioxido-1,3-dihydrobenzo[c]isothiazol-5-yl)amino)-1H-pyrazol-5-yl)cyclopentyl isopropylcarbamate] | 0.0031 | 0.03 |
| CC(C)NC(=O)O[C@H]1CC[C@@H](c2cc(Nc3ccc4c(c3F)C(C)NS4(=O)=O)n[nH]2)C1 (single isomer, unassigned) [Example 51c, cis-3-(3-((4-fluoro-3-methyl-1,1-dioxido-2,3-dihydrobenzo[d]isothiazol-5-yl)amino)-1H-pyrazol-5-yl)cyclopentyl isopropylcarbamate] | 0.0021 | 0.106 |
| CC(C)NC(=O)O[C@H]1CC[C@@H](c2cc(Nc3ccc4c(c3F)C(C)NS4(=O)=O)n[nH]2)C1 (single isomer, unassigned) [Example 51b, cis-3-(3-((4-fluoro-3-methyl-1,1-dioxido-2,3-dihydrobenzo[d]isothiazol-5-yl)amino)-1H-pyrazol-5-yl)cyclopentyl isopropylcarbamate] | 0.0033 | 0.082 |
| CN1c2ccc(Nc3cc([C@@H]4CC[C@H](OC(=O)NC5COC5)C4)[nH]n3)cc2CS1(=O)=O (relative stereo) [Example 236, cis-3-(3-((1-methyl-2,2-dioxido-1,3-dihydrobenzo[c]isothiazol-5-yl)amino)-1H-pyrazol-5-yl)cyclopentyl oxetan-3-ylcarbamate] | 0.047 | 0.32 |
| CC1(NC(=O)O[C@H]2CC[C@@H](c3cc(Nc4ccc5c(c4F)CS(=O)(=O)N5CC(F)(F)F)n[nH]3)C2)COC1 (relative stereo) [Example 409, cis-3-(3-((4-fluoro-2,2-dioxido-1-(2,2,2-trifluoroethyl)-1,3-dihydrobenzo[c]isothiazol-5-yl)amino)-1H-pyrazol-5-yl)cyclopentyl(3-methyloxetan-3-yl)carbamate] | 0.0058 | 0.21 |
| CC1(NC(=O)O[C@H]2CC[C@@H](c3cc(Nc4ccc5c(c4)CS(=O)(=O)N5)n[nH]3)C2)CCOC1 (relative stereo) [Example 392, cis-3-(3-((2,2-dioxido-1,3-dihydrobenzo[c]isothiazol-5-yl)amino)-1H-pyrazol-5-yl)cyclopentyl(3-methyltetrahydrofuran-3-yl)carbamate] | 0.0011 | 0.01 |
| [2H]C([2H])([2H])N1Cc2c(ccc(Nc3cc([C@@H]4CC[C@H](OC(=O)NC5(C)CC5)C4)[nH]n3)c2F)S1(=O)=O (single isomer, unassigned) [Example 132b, cis-3-(3-((4-fluoro-2-(methyl-d3)-1,1-dioxido-2,3-dihydrobenzo[d]isothiazol-5-yl)amino)-1H-pyrazol-5-yl)cyclopentyl(1-methylcyclopropyl)carbamate] | 0.0019 | 0.065 |
| CC1(NC(=O)O[C@H]2CC[C@@H](c3cc(Nc4ccc5c(c4F)CNS5(=O)=O)n[nH]3)C2)COC1 (single isomer, unassigned) [Example 164a, cis-3-(3-((4-fluoro-1,1-dioxido-2,3-dihydrobenzo[d]isothiazol-5-yl)amino)-1H-pyrazol-5-yl)cyclopentyl(3-methyloxetan-3-yl)carbamate] | 0.0043 | 0.364 |
| CC[C@H](C)NC(=O)O[C@H]1CC[C@@H](c2cc(Nc3ccc4c(c3F)CN(C3CC3)S4(=O)=O)n[nH]2)C1 (single isomer, unassigned) [Example 117a] | 0.0025 | 0.326 |
| CC1(NC(=O)O[C@H]2CC[C@@H](c3cc(Nc4ccc5c(c4)CS(=O)(=O)N5)n[nH]3)C2)CC1 (relative stereo) [Example 232, cis-3-(3-((2,2-dioxido-1,3-dihydrobenzo[c]isothiazol-5-yl)amino)-1H-pyrazol-5-yl)cyclopentyl(1-methylcyclopropyl)carbamate] | 0.012 | 0.027 |
| COc1c(Nc2cc([C@@H]3CC[C@H](OC(=O)NC(C)C)C3)[nH]n2)ccc2c1CNS2(=O)=O (relative stereo) [Example 10, cis-3-(3-((4-methoxy-1,1-dioxido-2,3-dihydrobenzo[d]isothiazol-5-yl)amino)-1H-pyrazol-5-yl)cyclopentyl isopropylcarbamate] | 0.102 | 3.02 |
| CCCNC(=O)O[C@H]1CC[C@@H](c2cc(Nc3cc4c(cc3F)NS(=O)(=O)C4)n[nH]2)C1 (relative stereo) [Example 293, cis-3-(3-((6-fluoro-2,2-dioxido-1,3-dihydrobenzo[c]isothiazol-5-yl)amino)-1H-pyrazol-5-yl)cyclopentyl propylcarbamate] | 0.064 | 1.12 |
| CC(C)NC(=O)O[C@H]1CC[C@@H](c2cc(Nc3cc4c(cc3F)S(=O)(=O)NC4(C)C)n[nH]2)C1 (relative stereo) [Example 14, cis-3-(3-((6-fluoro-3,3-dimethyl-1,1-dioxido-2,3-dihydrobenzo[d]isothiazol-5-yl)amino)-1H-pyrazol-5-yl)cyclopentyl isopropylcarbamate] | 0.03 | 1.09 |
| CC(C)NC(=O)O[C@H]1CC[C@@H](c2cc(Nc3ccc4c(c3F)CS(=O)(=O)N4CC(F)(F)F)n[nH]2)C1 (single isomer, unassigned) [Example 263a, cis-3-(3-((4-fluoro-2,2-dioxido-1-(2,2,2-trifluoroethyl)-1,3-dihydrobenzo[c]isothiazol-5-yl)amino)-1H-pyrazol-5-yl)cyclopentyl isopropylcarbamate] | 0.0021 | 0.07 |
